Experimental data published in PubChem BioAssay (NCI).
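Cultured in 96-well plates, cells were exposed to test compound for 48 hours across five concentrations. TGI marks complete inhibition of growth.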

Columns and labels:
Test in all cases: inhibition of tumour cell growth, NCI panel, 48 h
COLO 205 colon = tested on: COLO 205 colon
KM12 colon = tested on: KM12 colon
T-47D breast = tested on: T-47D breast
UO-31 renal = tested on: UO-31 renal
SF-295 CNS = tested on: SF-295 CNS
SK-OV-3 ovarian = tested on: SK-OV-3 ovarian
RPMI-8226 leukemia = tested on: RPMI-8226 leukemia
SF-539 CNS = tested on: SF-539 CNS

SMILES	TGI (COLO 205 colon) [µM]	TGI (KM12 colon) [µM]	TGI (T-47D breast) [µM]	TGI (UO-31 renal) [µM]	TGI (SF-295 CNS) [µM]	TGI (SK-OV-3 ovarian) [µM]	TGI (RPMI-8226 leukemia) [µM]	TGI (SF-539 CNS) [µM]
Cc1ccc(NC=O)c(-c2c(N)[nH]c(=S)[nH]c2=O)c1	> 100	> 100	> 100	> 100	> 100	91.7	> 100	> 100
CC(=O)OC12C3C4C1C1C2C3C41OC(C)=O (stereo not given)	> 100	> 100	> 100	> 100	> 100	> 100	> 100	> 100
CO/N=C(/C)c1cccc(Nc2nc3ccccc3c3[nH]c4ccccc4c23)c1	20.3	14.2	6.9	22.1	14.6	40.3	–	28.1
CCCC(CCC(N)=O)(CCC(N)=O)[N+](=O)[O-]	> 100	> 100	> 100	> 100	> 100	> 100	> 100	> 100
Cc1c2c3ccccc3nc-2n(C)c2ccccc12	–	7.91	41.3	6.25	24.6	7.22	52.7	10.8
CC(C)(C)OC(=O)N(CCCCNC(=O)OCc1ccccc1)CCCNC(=O)OCc1ccccc1	> 100	> 100	> 100	–	> 100	> 100	> 100	> 100
CCP(=O)(CC)C(Cl)Cl	> 100	–	> 100	> 100	> 100	> 100	> 100	–
COc1ccc2nc(-c3ccccc3)cc(OCC(=O)O)c2c1	> 100	> 100	> 100	51.3	> 100	> 100	> 100	> 100
O=C(NCCN1CCOCC1)c1cn2c(ccc3sc4ccccc4c(=O)c32)n1	> 100	> 100	–	> 100	44.9	–	41.2	> 100
COc1ccc(-n2c(N)c(C#N)[nH]c2=O)cc1	> 10	> 10	> 10	> 10	7.91	> 10	> 10	> 10
CN(C)c1ccc(C=NCC2CCCN3CCCCC23)cc1 (stereo not given)	> 100	> 100	–	> 100	> 100	> 100	–	–
Cc1ccc2c(c1)C(=O)c1nc(C)ccc1C2=O	42.7	> 100	> 100	86.2	> 100	> 100	74.1	> 100
CC1=NC2=Nc3nc(C)cc[n+]3CN2C=C1	> 100	–	> 100	> 100	> 100	> 100	67.5	> 100
c1ccc2c(c1)c1c(n2CCOCCN2CCCC2)CCCC1	38.2	–	61.9	43.2	> 100	87.7	42.2	29.9
Clc1ccc(C2=NN=C3C(c4ccccc4)=Nc4ccccc4N3C2)cc1	> 100	> 100	–	> 80	> 100	> 100	> 29.4	> 100
CCN1CCC(O)(c2ccc(Oc3ccc(F)cc3)cc2)C(C(=O)c2ccc(Oc3ccc(F)cc3)cc2)C1 (stereo not given)	33.5	18.3	30.9	–	29.3	32.2	8.03	33.2
CCOC(=O)c1nnsc1N/N=C\c1ccc([N+](=O)[O-])cc1	> 100	> 100	> 100	> 100	> 100	> 100	> 100	–
CN1C/C(=C\c2cccs2)C(O)/C(=C/c2cccs2)C1 (stereo not given)	> 100	> 100	74.2	> 100	> 100	> 100	89.9	–
COc1ccc(-n2[nH]nc(C(N)=O)c2=O)cc1	> 100	> 100	> 100	> 100	> 100	> 100	> 100	–
COc1cc(C(C)O)c(S(=O)(=O)CC(C)O)nn1 (stereo not given)	> 100	> 100	–	> 100	> 100	> 100	> 100	> 100
C=C1C(=O)O[C@H]2C[C@@]3(COC(C)=O)C=COC=C(COC(=O)C(C)C)C3CC12 (stereo not given in full)	> 100	> 100	–	> 100	> 100	–	63.6	> 100
CS(=O)(=O)OCCN(CCOS(C)(=O)=O)c1ccc(C=Nc2cccc(Cl)c2)cc1	6.56	> 100	> 100	> 100	28.9	–	32.6	27.3
O=C(/C=C/c1ccccc1)CSc1ncn[nH]1	> 100	> 100	–	> 100	> 100	> 100	> 100	> 100
CC1(C)OC2[C@@H](CO[C@@]3([C@@H](O)CCO)OC(C)(C)O[C@@H]23)O1 (stereo not given in full)	> 100	> 100	> 100	> 100	> 100	–	> 100	> 100
O=C1CC(c2ccccc2)C2(C(=O)NC(=S)NC2=O)C(c2ccccc2)C1 (stereo not given)	> 75	> 75	> 75	> 75	> 75	–	73.3	> 75
CCOC(=O)c1c(N=P(c2ccccc2)(c2ccccc2)c2ccccc2)nnc(-c2ccccc2)c1-c1ccccc1	> 100	> 100	> 100	> 100	> 100	> 100	–	> 100
C/C(=N\N=C(\N)SB(F)F)c1ccc2ccccc2c1	> 100	> 100	> 100	> 100	> 100	> 100	–	> 100
